# Entries after “also recorded” stand apart in the source; their conditions may differ.
# Columns and labels:
# Format in all cases: in vivo, human
# [1] = tested on: patients with neuropathic pain; test: Case reports: relief of neuropathic pain by EGFR inhibitors (0-10 NRS / Brief Pain Inventory); conditions: for Phantom-limb pain response: Case 5, panitumumab then erlotinib; for NP relief (summary of the cases): conditions where proximal and/or distal parts of peripheral nerves were affected
# Method: The term “in vivo” refers to the natural environment (e.g., an animal or a cell) and to processes or reaction that occur within a natural environment. […] Pain interference is assessed using the Brief Pain Inventory (BPI). BPI is used to evaluate pain interference with the following: (a) general activity, (b) mood, (c) walking ability, (d) normal work, (e) relations with other people, (f) sleep, and (g) enjoyment of life. Total score for pain interference is calculated as: (Mean score of non-missing questions)×(7/number of non-missing questions). If four or more questions are missing, the pain interference total score is set to missing.
# In some cases, the patients were asked to complete a BPI short form daily, just before and during the EGFR inhibition, in order to document their neuropathic pain and thus, help us to judge their responses and guide treatment decisions.
# [2] = Case reports: side effects of EGFR inhibitors
# [3] = Case reports: concomitant analgesic / opioid requirement during EGFR inhibition
# [4] = Case reports: performance status, function, quality of life and accompanying symptoms; conditions: Case 7, CIPN; after six to eight weeks of treatment
# [5] = Case 2, yrs, complex regional pain syndrome type 1 of the right hand, sequence cetuximab, panitumumab, cetuximab, gefitinib, erlotinib
# [6] = Case 14, panitumumab then erlotinib, four weeks
# [7] = Case 2, CRPS1, after gefitinib discontinuation, 10/10 before treatment
molecule,measurement,setting,value
C#Cc1cccc(Nc2ncnc3cc(OCCOC)c(OCCOC)cc23)c1 [erlotinib],Neuropathic pain response,[1]; [5],pain-free upon conversion from panitumumab to erlotinib; also recorded: has not recurred since; also recorded: continues to be completely resolved
same,Phantom-limb pain response,[1],reported phantom-limb pain improvement
same,Least degree of pain,"[1]; Case 9, 10 days on erlotinib 150 mg tablets",0 /10
same,Onset of effect,"[1]; Case 9, oral erlotinib 150 mg",four to five days
same,Pain relief,"[1]; Case 13, 150 mg oral erlotinib after panitumumab, over the following three weeks",up to 70%
same,Pain reduction,"[1]; Case 13, four weeks after starting erlotinib, week with slightly worsening pain, uses omeprazole",60%
same,Average pain,"[1]; Case 14, four weeks after start of EGFR-I (panitumumab), one week after starting erlotinib, around 5 before",4 out of 10
same,Maximum pain,"[1]; Case 14, four weeks after start of EGFR-I, one week after starting erlotinib, 10 before",6 0-10 pain scale
same,NP relief (summary of the cases),[1],led to complete NP relief
same,"Neuropathic pain response (BPI scores, FIG. 7 lower panel)",[1]; previously EGFR-I naive patient (case 9),responded to upfront treatment
same,Side effect,"[2]; Case 9, erlotinib",dry skin grade II which was transient
same,Side effects,[2]; [6],has not experienced any side effects to date
same,Analgesic requirement,[3]; Case 5,opioid requirement diminished
panitumumab,Pain score 48 hours after panitumumab infusion,[1]; [7],3 /10
same,Pain score the next day after panitumumab infusion,[1]; [7],5 /10
same,Neuropathic pain response,[1]; [5],recurrence of severe pain on the very same evening as the panitumumab infusion; also recorded: completely gone again on the third day; also recorded: dramatic increase in pain just hours after infusion; also recorded: dramatic pain relief within hours
same,Phantom-limb pain response,[1],again effectively alleviated within one day after the second infusion
same,Time to complete relief after first infusion,"[1]; Case 6, panitumumab",≤ 24 h
same,Pain reduction,"[1]; Case 7, CIPN, after four to six weeks (2-3 doses) of panitumumab",60-70%
same,Maximum pain intensity,"[1]; Case 7, CIPN, two weeks after first panitumumab, only lasted a few seconds",ten out of ten
same,Duration of painful bursts,"[1]; Case 7, CIPN, two weeks after first panitumumab, several minutes before",five to ten seconds
same,Herpes Zoster related symptoms,"[1]; Case 8, herpetic neuralgia Th5, Day 20, panitumumab infusion, bursts 10/10 on days 16-20",pain had completely resolved.
same,"Herpes Zoster related symptoms: intensity, frequency and duration of painful bursts","[1]; Case 8, Day 34",improve (since day 21).
same,"Time to complete pain relief, into the infusion","[1]; Case 8, panitumumab infusion on day 20",approximately 10 minutes
same,Pain level at recurrence,"[1]; Case 10, 15 days after the initial panitumumab infusion",9 out of 10
same,Pain intensity during the following weeks,"[1]; Case 10, after first panitumumab 6 mg/kg",2-3 NRS
same,Neuropathic pain response,"[1]; Case 11, two days after panitumumab infusion and on continued treatment every 2 weeks",completely gone; also recorded: NP has not recurred
same,Reported pain reduction,"[1]; Case 12, after two panitumumab infusions",75%
same,Duration of analgesic effect,"[1]; Case 12, first panitumumab infusion",lasted only one week
same,Worst pain level after second infusion,"[1]; Case 12, second panitumumab infusion after two weeks, pregabalin reduced from 375 mg to 225 mg",around three
same,Peak NP in occasional episodes,"[1]; Case 12, three months after initial EGFR-I administration",3
same,Average NP,"[1]; Case 12, three months after initial EGFR-I administration, treatment on hold",2
same,Reduction in pain intensity,"[1]; Case 13, yrs, CIPN (oxaliplatin), two days after 6 mg/kg panitumumab i.v.",20-30%
same,Distribution of pain,"[1]; Case 13, two days after panitumumab, pain only located distally in feet",the pain in the legs had completely disappeared
same,"Pain further reduced by, of baseline levels","[1]; Case 13, two weeks after the panitumumab infusion",30-40%
same,Worst pain in the first two weeks after the infusion,"[1]; Case 14, panitumumab, amitryptiline reduced from 40 mg to 20 mg, exacerbations 10 out of 10 before",6-7 out of 10
same,Time to pain recurrence after panitumumab,[1]; case 3,roughly 20 days
same,NP relief (summary of the cases),[1],led to complete NP relief
same,Sensibility,[4],beginning to regain sensibility in their fingers
same,Side effects,"[2]; Case 11, panitumumab every 2 weeks",transient acne; also recorded: has otherwise not experienced any side effects
same,Side effect,"[2]; Case 12, panitumumab",skin rash grade 2-3
same,Side effects,[2]; [6],has not experienced any side effects to date
same,Analgesic requirement,[3]; Case 5,required less breakthrough pain medication
same,Analgesic requirement,"[3]; Case 6, during panitumumab treatment",no longer required analgesics
same,Opiate requirement,"[3]; Case 11, two days after panitumumab, 100 mg depot morphine per 24 hours before",no longer required opiates
